The text below walks through data of US20030153571A1 (priority 2002, published 2003).

Test system in the first series: not given
Experiment: not given
Conditions: not given
For the molecule `CS(=O)(=O)O.O=c1c2ccc(Cl)cc2[nH]c2c(O)nn(CCc3ccncc3)c(=O)c12` [Ex. 2, (+/−)-7-Chloro-4-hydroxy-2-(4-pyridyleth-1-yl)-1,2,5,10-tetrahydropyridazino[4,5-b]quinoline-1,10-dione methanesulfonate], the melting point (commonly the temperature of the solid-liquid transition) fell in the range of 245 to 248 °C.

Another series deals with CCI rats (thermal hyperalgesia). In words: Test C: Neuropathic pain model (Chronic Constriction Injury), thermal hyperalgesia paw-withdrawal test. The class given is in vivo, rat. To be noted: oral, three times daily for 5 days, at the MED, compared to vehicle-treated animals. An excerpt: Test C: Neuropathic pain model (Chronic Constriction Injury):
The anti-hyperalgesic properties of a compound may be tested with the Chronic Constriction Injury (“CCI”) model. The test is a model for neuropathic pain associated with nerve injuries that can arise directly from trauma and compression, or indirectly from a wide range of diseases such as infection, cancer, metabolic conditions, toxins, nutritional deficiencies, immunological dysfunction, and musculoskeletal changes. In the model a unilateral peripheral hyperalgesia is produced in rats by nerve ligation (G. J. Bennett, et al., Pain 33, 87-107 (1988)).
Procedurally, Sprague-Dawley rats (250-350 g) are anesthetized with sodium pentobarbital and the common sciatic nerve is exposed at the level of the mid thigh by blunt dissection through the biceps femoris. […] Thermal hyperalgesia is measured using a paw-withdrawal test (K. Hargreaves, et al., Pain 32, 77-88 (1988)). […] The latencies for the withdrawal reflex in both hind paws are recorded.
Injured paws with ligated nerves show shorter paw withdrawal latencies compared to the uninjured or sham operated paws. Responses to test compounds are evaluated at different times after oral administration to determine the onset and duration of compound effect. […] Paw withdrawal latencies are measured each day 10 min before and 2 or 3 hr. after the first daily dose. […]
“(+/−)-7-Chloro-4-hydroxy-2-(4-pyridylprop-1-yl)-1,2,5,10-tetrahydropyridazino[4,5-b]quinoline-1,10-dione sodium methanesulfonate [Ex. 3]”: the “Test C %Inh. (percent decrease in hyperalgesia at the MED)” value is 10%.

Still in this series, the particulars now being: oral, three times daily for 5 days, dose giving statistically significant decrease in hyperalgesia.
In the case of “(+/−)-7-Chloro-4-hydroxy-2-(4-pyridylprop-1-yl)-1,2,5,10-tetrahydropyridazino[4,5-b]quinoline-1,10-dione sodium methanesulfonate [Ex. 3]”, the “Test C MED (minimum effective dose)” value turned out to be 30 mg/kg/day.

The next series deals with T1, NMDA receptor glycine site (Rattus norvegicus, UniProt P35439).
T1 construct: to brain membranes bearing the receptor; tissue Analytical Biological Services Inc; host or cells: rat brain membranes (cerebral cortex and hippocampus, male Sprague Dawley rats)
In words: Test A: Inhibition of binding of [3H]-MDL105,519 to brain membranes. To be noted: inhibition of [3H]MDL105,519 binding, brain membranes. An excerpt: Test A: Inhibition of binding of [^3H]-MDL105,519:
Binding of compounds to the NMDA receptor glycine site may be assessed by measuring the ability of test compounds to inhibit the binding of tritiated MDL105,519 to brain membranes bearing the receptor.
Briefly, fresh brain tissue including cerebral cortex and hippocampus from male Sprague Dawley rats was homogenized in 0.32 M sucrose and centrifuged at low speed to separate cellular membranes from other cellular components. The membranes were then washed 3 times using deionized water, followed by treatment with 0.04% Triton X-100. Finally, membranes were washed six times in 50 mM Tris citrate buffer, pH 7.4, and frozen at −80° C. until use.
[^3H]MDL105,519 (72 Ci/mmol) was purchased from Amersham. Cold MDL105,519 was purchased from Sigma/RBI. […] On the day of the experiment, brain membranes were thawed at room temperature and suspended in 50 mM tris acetate buffer, pH 7.4 (“TAB”). Seventy-five micro grams per milliliter protein (by using the BioRad dye) were used for competition binding. The experiments were carried out using 96-well plates. […] Non specific binding was determined by using 100 μM of unlabeled MDL105,519. […] After incubation, unbound [^3H]MDL105,519 was removed by filtration onto GF/B Unifilter plates using a Packard harvester. Filters were washed four times with ice cold TAB (total of 1.2 mL buffer). The plates were dried overnight at room temperature and bound radioactivity was measured on a Packard TopCount after the addition of 45 μL per well of the MICROSCINT O.
Human Brain Membranes: Human brain membranes were obtained from Analytical Biological Services Inc., and assays were performed as described for rat membranes.
Data analysis: Data was analyzed using a Microsoft Excel spreadsheet and GraphPad Prizm software and potency of compounds is expressed as the Ki (nM).
For `CCCC(c1ccccn1)n1nc(O)c2[nH]c3cc(Cl)ccc3c(=O)c2c1=O` (racemic) [Ex. 6, (+/−)-7-Chloro-4-hydroxy-2-(butyl-1-(2-pyridyl))-1,2,5,10-tetrahydropyridazino[4,5-b]quinoline-1,10-dione methanesulfonate], the Ki (in general, the equilibrium dissociation constant of an inhibitor or competing ligand from its target) is above 10000 nM.

Still in this series, the particulars now being: inhibition of [3H]MDL105,519 binding, brain membranes (rat and human membranes described; table does not say which).
The molecule `CC(c1ccco1)n1nc(O)c2[nH]c3cc(Cl)ccc3c(=O)c2c1=O` (racemic) showed a Ki of 153 nM.

Molecule `CC(c1ccc(C#N)s1)n1nc(O)c2[nH]c3cc(Cl)ccc3c(=O)c2c1=O` (centres unmarked) [Ex. 22, 7-Chloro-4-hydroxy-2-(1-(5-cyanothien-2-yl)ethyl)-1,2,5,10-tetrahydropyridazino[4,5-b]quinoline-1,10-dione] gave a Ki of 692 nM.

Take `O=c1c2ccc(Cl)cc2[nH]c2c(O)nn(CCc3cccnc3Cl)c(=O)c12` [Ex. 15, (+/−)-7-Chloro-4-hydroxy-2-(2-chloro-pyrid-3-yl)ethyl-1,2,5,10-tetrahydropyridazino[4,5-b]quinoline-1,10-dione]: affinity was put at a Ki of 676 nM.

Consider `CCC(c1ccccn1)n1[nH]c(=O)c2nc3cc(Cl)ccc3c(O)c2c1=O` (racemic) [Ex. 4, (+/−)-7-Chloro-4-hydroxy-2-(propyl-1-(2-pyridyl))-1,2,5,10-tetrahydropyridazino [4,5-b]quinoline-1,10-dione methanesulfonate], for which the Ki came to 1810 nM.

For the molecule `CC(c1cc2ccccc2s1)n1nc(O)c2[nH]c3cc(Cl)ccc3c(=O)c2c1=O` (centres unmarked) [Ex. 21], the Ki is 177 nM.

`COc1ccc(C(C)n2nc(O)c3[nH]c4cc(Cl)ccc4c(=O)c3c2=O)cn1` (racemic) [Ex. 14, (+/−)-7-Chloro-4-hydroxy-2-(1-(2-methoxypyrid-5-yl))ethyl-1,2,5,10-tetrahydropyridazino[4,5-b]quinoline-1,10-dione methanesulfonate] came in with a Ki of 312 nM.

For `COc1cnccc1C(C)n1nc(O)c2[nH]c3cc(Cl)ccc3c(=O)c2c1=O` (racemic) [Ex. 13, (+/−)7-Chloro-4-hydroxy-2-(1-(3-methoxypyrid-4-yl))ethyl-1,2,5,10-tetrahydropyridazino[4,5-b]quinoline-1,10-dione methanesulfonate], the affinity corresponds to a Ki of 568 nM.

Molecule `CC(C)C(c1ccncc1)n1nc(O)c2[nH]c3cc(Cl)ccc3c(=O)c2c1=O` (racemic) [Ex. 8, (+/−)-7-Chloro-4-hydroxy-2-(propyl-(2-methyl-1-(4-pyridyl))-1,2,5,10-tetrahydropyridazino[4,5-b]quinoline-1,10-dione methanesulfonate] came in with a Ki of 5230 nM.

`CC(c1ccnc(Cl)c1)n1nc(O)c2[nH]c3cc(Cl)ccc3c(=O)c2c1=O` (racemic) [Ex. 16, (+/−)-7-Chloro-1-hydroxy-2-(2-chloro(4-pyridyl)ethyl)-1,2,5,10-tetrahydropyridazino[4,5-b]quinoline-1,10-dione] registered a Ki of 51 nM.

On to `CC(c1cnccn1)n1nc(O)c2[nH]c3cc(Cl)ccc3c(=O)c2c1=O` (centres unmarked) [Ex. 23, 7-Chloro-4-hydroxy-2-(ethyl-1-(pyrazin-2-yl))-1,2,5,10-tetrahydropyridazino [4,5-b]quinoline-1,10-dione], for which the Ki came to 336 nM.

Take “(+/−)-7-Chloro-4-hydroxy-2-(4-pyridylprop-1-yl)-1,2,5,10-tetrahydropyridazino[4,5-b]quinoline-1,10-dione sodium methanesulfonate [Ex. 3]”: the Ki amounted to 1940 nM.

The molecule `CC(C)CC(c1ccncc1)n1[nH]c(=O)c2nc3cc(Cl)ccc3c(O)c2c1=O` (racemic) [Ex. 12, (+/−)-7-Chloro-4-hydroxy-2-(3-methyl-1-(4-pyridyl)butyl)-1,2,5,10-tetrahydropyridazino[4,5-b]quinoline-1,10-dione] showed a Ki of 5230 nM.

Molecule `CCCC(c1ccncc1)n1nc(O)c2[nH]c3cc(Cl)ccc3c(=O)c2c1=O` (racemic) [Ex. 7, (+/−)-7-Chloro-4-hydroxy-2-(butyl-1-(4-pyridyl))-1,2,5,10-tetrahydropyridazino[4,5-b]quinoline-1,10-dione] yielded a Ki of 4340 nM.
